Test results: PubChem BioAssay AID1259408 (Genetic Toxicology Data Bank (GENE-TOX), 2018)
Calls of active or inactive are those of the source. The rule behind the calls is not given here.

Test system: GENE-TOX genotoxicity assays, various organisms and cells
Experiment: GENE-TOX mutagenicity studies
Conditions: for call: Assay Type: In vivo carcinogenicity studies, Assay Code: CCG+
[1] = Species/Cell Type: Bacillus subtilis (H17 vs M45), Assay Type: Rec-assay, spot test, DNA effects (bacterial DNA repair), Assay Code: REWT, Evaluation Type: Evaluation A (Pre-1980)
[2] = Species/Cell Type: Escherichia coli polA (W3119 vs P3478), Assay Type: Rec-assay, DNA effects (bacterial DNA repair), Assay Code: RE1+, Evaluation Type: Evaluation A (Pre-1980)
[3] = Species/Cell Type: Nonhuman, Evaluation Type: Evaluation A (Pre-1980)
[4] = Species/Cell Type: Salmonella typhimurium (one or more of the five standard strains: TA98, TA100, TA1535, TA1537, and TA1538), Assay Type: Histidine reverse gene mutation, Ames assay, Assay Code: SAL+*, Activation: With metabolic activation, Evaluation Type: Evaluation A (Pre-1980)
[5] = Species/Cell Type: Salmonella typhimurium, Assay Type: Forward and reverse gene mutation, host-mediated assay, Assay Code: HMA-, Evaluation Type: Evaluation A (Pre-1980)
[6] = Species/Cell Type: Drosophila melanogaster, Assay Type: Sex-linked recessive lethal gene mutation, Assay Code: SRL-, Evaluation Type: Evaluation A (Pre-1980)
[7] = Species/Cell Type: Escherichia coli WP2 UVRA, Assay Type: Tryptophan reverse gene mutation, Assay Code: WPU-*, Activation: With metabolic activation, Evaluation Type: Evaluation A (Pre-1980)
[8] = Species/Cell Type: Escherichia coli polA (W3119 vs P3478), Assay Type: Rec-assay, DNA effects (bacterial DNA repair), Assay Code: RE1T, Evaluation Type: Evaluation A (Pre-1980)
[9] = Species/Cell Type: Human diploid fibroblasts, Assay Type: Unscheduled DNA synthesis (UDS) in vitro, DNA effects, Assay Code: UDH-, Evaluation Type: Evaluation A (Pre-1980)
[10] = Species/Cell Type: Saccharomyces cerevisiae, Assay Type: Mitotic recombination or gene conversion, Assay Code: YEH-, Evaluation Type: Evaluation A (Pre-1980)
[11] = Species/Cell Type: Salmonella typhimurium (one or more of the five standard strains: TA98, TA100, TA1535, TA1537, and TA1538), Assay Type: Histidine reverse gene mutation, Ames assay, Assay Code: SALT, Evaluation Type: Evaluation A (Pre-1980)
[12] = Species/Cell Type: Salmonella typhimurium (one or more of the five standard strains: TA98, TA100, TA1535, TA1537, and TA1538), Assay Type: Histidine reverse gene mutation, Ames assay, Assay Code: SAL+, Evaluation Type: Evaluation A (Pre-1980)
[13] = Species/Cell Type: Saccharomyces cerevisiae, Assay Type: Reverse gene mutation, Assay Code: YERT, Evaluation Type: Evaluation A (Pre-1980)
[14] = Species/Cell Type: Drosophila melanogaster, Assay Type: Sex-linked recessive lethal gene mutation, Assay Code: SRL+, Evaluation Type: Evaluation A (Pre-1980)
[15] = Species/Cell Type: Mammalian polychromatic erythrocytes, Assay Type: Micronucleus test, chromosome aberrations, Assay Code: MNTT, Evaluation Type: Evaluation B (Post-1980)

`CC(=O)[O-].CC(=O)[O-].CC(=O)[O-].[Sb+3]` was tested, and the mutagenic call (Species/Cell Type: Syrian hamster embryo (SA7/SHE) cells, Assay Type: Cell transformation, viral enhanced, Assay Code: CT7+, Evaluation Type: Evaluation A (Pre-1980)) was “active; positive”.

`Cc1c(C2(c3cc(C(C)C)c(O)c(Br)c3C)OS(=O)(=O)c3ccccc32)cc(C(C)C)c(O)c1Br` was tested, and the mutagenic call [1] was “no conclusion”.

For `CNC(=O)Oc1cccc2c1OC(C)(C)O2`, the mutagenic call (Species/Cell Type: Aspergillus nidulans, Assay Type: Aneuploidy, chromosome aberrations, Assay Code: ASN-, Evaluation Type: Evaluation A (Pre-1980)) was “inactive; negative”.

`BrC(Br)C(Br)Br` was tested, and the mutagenic call [2] was “active; positive”.

`Cc1c(N)nc(C)c2c1[nH]c1ccccc12` was tested, and the mutagenic call (Species/Cell Type: Human lymphocytes, Assay Type: Sister-chromatid exchange (SCE) in vitro, Assay Code: SCL+D, Dose Response: With dose response, Evaluation Type: Evaluation B (Post-1980)) was “active; positive”, the mutagenic call (Species/Cell Type: Human, Assay Type: Sister-chromatid exchange (SCE) in vitro, Assay Code: SC1+D, Dose Response: With dose response, Evaluation Type: Evaluation B (Post-1980)) was “active; positive” and the call [3] was “active; positive”. For the same molecule, the mutagenic call [4] was “active; positive” and the mutagenic call (Species/Cell Type: Syrian hamster embryo (SHE) cells, Assay Type: Cell transformation, clonal assay, Assay Code: CTC+, Evaluation Type: Evaluation A (Pre-1980)) was “active; positive”.

`COc1cccc(OC)c1O` was tested, and the mutagenic call (Species/Cell Type: Human lymphocytes, Assay Type: Sister-chromatid exchange (SCE) in vitro, Assay Code: SCLT, Evaluation Type: Evaluation B (Post-1980)) was “no conclusion” and the mutagenic call (Species/Cell Type: Human, Assay Type: Sister-chromatid exchange (SCE) in vitro, Assay Code: SC1T, Evaluation Type: Evaluation B (Post-1980)) was “no conclusion”.

In the case of `O=C(O)c1ccc([N+](=O)[O-])cc1`, the mutagenic call [5] was “inactive; negative”.

For `CCOP(=S)(NC(C)CC)Oc1cc(C)ccc1[N+](=O)[O-]` (centres undefined), the mutagenic call [5] was “inactive; negative”.

With `CNC(=O)O/N=C(\C)SC` the mutagenic call [1] was “no conclusion”, the mutagenic call [6] was “inactive; negative” and the mutagenic call [7] was “inactive; negative”. The mutagenic call [8] was “no conclusion”, the mutagenic call [9] was “inactive; negative” and the mutagenic call [10] was “inactive; negative”. For the same molecule, the mutagenic call [11] was “no conclusion”.

`O=C(Nc1nc(-c2ccc([N+](=O)[O-])o2)cs1)C(F)(F)F` was tested, and the mutagenic call (Species/Cell Type: Escherichia coli WP2, Assay Type: Tryptophan reverse gene mutation, Assay Code: WP2+, Evaluation Type: Evaluation A (Pre-1980)) was “active; positive”, the mutagenic call (Species/Cell Type: Escherichia coli WP2 UVRA, Assay Type: Tryptophan reverse gene mutation, Assay Code: WPU-, Evaluation Type: Evaluation A (Pre-1980)) was “inactive; negative” and the mutagenic call [12] was “active; positive”.

With `CC(C)(C)Br` the mutagenic call (Species/Cell Type: Escherichia coli polA (W3119 vs P3478), Assay Type: Rec-assay, DNA effects (bacterial DNA repair), Assay Code: RE1-, Evaluation Type: Evaluation A (Pre-1980)) was “inactive; negative”.

In the case of `CCN(CC)Cc1cc(CC(=O)NN)ccc1OC(C)C`, the mutagenic call [13] was “no conclusion”.

With `Nc1cc(N)c(N=Nc2ccc(S(=O)(=O)O)cc2)cc1N=Nc1ccc(S(=O)(=O)O)cc1` (tested in a mixture with another compound) the mutagenic call [12] was “active; positive”.

In the case of `CCCCCC(=O)c1c(O)cc2c(c1O)C(=O)c1c(O)cc(O)cc1C2=O`, the mutagenic call [11] was “no conclusion”.

For `O=P(N1C2COCC21)(N1C2COCC21)N1C2COCC21` (centres undefined), the mutagenic call [14] was “active; positive”.

In the case of `C=CCn1c(=O)n(C)c2c(=O)n(C)c(=O)n(C)c21`, the mutagenic call (Species/Cell Type: Allium cepa, Assay Type: Chromosome aberrations, Assay Code: ALC+D, Dose Response: With dose response, Evaluation Type: Evaluation A (Pre-1980)) was “active; positive”.

In the case of `CCCCCCC(=O)O[C@H]1CC[C@H]2[C@@H]3CCC4=CC(=O)CC[C@]4(C)[C@H]3CC[C@]12C`, the mutagenic call (Species/Cell Type: Human, Sex: Male, Assay Type: Sperm morphology, Assay Code: SPH+, Evaluation Type: Evaluation A (Pre-1980)) was “active; positive” and the call [3] was “active; positive”.

`CNC(=O)Nc1nc(-c2ccccc2)cs1` was tested, and the mutagenic call (Species/Cell Type: Salmonella typhimurium, Serratia marcesens, Assay Type: Forward and reverse gene mutation, host-mediated assay, Assay Code: HM2+, Evaluation Type: Evaluation A (Pre-1980)) was “active; positive”.

For `Cc1cc2ccccc2c2cc(F)c3ccccc3c12`, the mutagenic call [11] was “no conclusion”.

For `CC(=O)Nc1nnc(-c2ccc([N+](=O)[O-])o2)s1`, the mutagenic call [12] was “active; positive”.

With `OC[P+](CO)(CO)CO` the mutagenic call [15] was “no conclusion”.

In the case of `OC1C2OC2=C2C=c3ccc4cccc5ccc(c3c54)C2C1O` (centres undefined), the mutagenic call (Species/Cell Type: Chinese hamster lung (V79) cells, Assay Type: Forward gene mutation at the HPRT or ouabain locus, Assay Code: V79+, Evaluation Type: Evaluation A (Pre-1980)) was “active; positive”.

With `OCl` the mutagenic call [2] was “active; positive”, the mutagenic call (Species/Cell Type: Human lymphocytes or leukocytes, Assay Type: Chromosome aberrations in vitro, Assay Code: CY7+D, Dose Response: With dose response, Evaluation Type: Evaluation A (Pre-1980)) was “active; positive” and the mutagenic call (Species/Cell Type: Human, Assay Type: Sister-chromatid exchange (SCE) in vitro, Assay Code: SC1+, Evaluation Type: Evaluation B (Post-1980)) was “active; positive”. The mutagenic call [15] was “no conclusion”, the mutagenic call (Species/Cell Type: Nonhuman, Assay Type: Chromosome aberrations in vitro, Assay Code: CY&+D, Dose Response: With dose response, Evaluation Type: Evaluation A (Pre-1980)) was “active; positive” and the mutagenic call [11] was “no conclusion”.

In the case of `OC(CCl)OC(O)CCl` (centres undefined), the mutagenic call [12] was “active; positive”.

In the case of `[2H]O[2H]`, the mutagenic call (Species/Cell Type: Drosophila melanogaster, Sex: Male, Assay Type: Heritable translocation test, chromosome aberrations, Assay Code: DHTT, Evaluation Type: Evaluation A (Pre-1980)) was “no conclusion”.

With `CCOP(=S)(OCC)Oc1ccc(S(C)=O)cc1` (centres undefined) the mutagenic call [1] was “no conclusion”, the mutagenic call [6] was “inactive; negative” and the mutagenic call [7] was “inactive; negative”. The mutagenic call [8] was “no conclusion”, the mutagenic call [9] was “inactive; negative” and the mutagenic call (Species/Cell Type: Nonhuman, Assay Type: Sister-chromatid exchange (SCE) in vitro, Assay Code: SC2T, Evaluation Type: Evaluation B (Post-1980)) was “no conclusion”. For the same molecule, the mutagenic call [10] was “inactive; negative” and the mutagenic call (Species/Cell Type: Salmonella typhimurium (one or more of the five standard strains: TA98, TA100, TA1535, TA1537, and TA1538), Assay Type: Histidine reverse gene mutation, Ames assay, Assay Code: SAL-, Evaluation Type: Evaluation A (Pre-1980)) was “inactive; negative”.

For `Nc1cccc2cc3ccccc3nc12`, the mutagenic call (Species/Cell Type: Saccharomyces cerevisiae, Assay Type: Forward gene mutation, Assay Code: YEFT, Evaluation Type: Evaluation A (Pre-1980)) was “no conclusion” and the mutagenic call [13] was “no conclusion”.

For `CCn1c(=O)c2c(ncn2CC)n(CC)c1=O`, the mutagenic call (Species/Cell Type: Allium cepa, Assay Type: Chromosome aberrations, Assay Code: ALC-, Evaluation Type: Evaluation A (Pre-1980)) was “inactive; negative”.

With `CCOP(=S)(NC(C)C)Oc1ccccc1C(=O)OC(C)C` (centres undefined) the mutagenic call (Species/Cell Type: Nonhuman, Assay Type: Sister-chromatid exchange (SCE) in vitro, Assay Code: SC2-, Evaluation Type: Evaluation B (Post-1980)) was “inactive; negative”.

`O=NN1CCC(Cl)CC1` was tested, and the mutagenic call [14] was “active; positive” and the mutagenic call [4] was “active; positive”.

With `Nc1ccc2cc3ccccc3nc2c1` the mutagenic call (Species/Cell Type: Mouse (BALB/c-3T3) cells, Assay Type: Cell transformation, Assay Code: CTB-, Evaluation Type: Evaluation A (Pre-1980)) was “inactive; negative”.
